Legend:
[1] = Predicted plasma concentrations in PAH patients at 75 mg per day; format: in vivo, human; conditions: macitentan 75 mg per day; for predicted peak plasma concentration: PAH patients, based on PK Sub-study, assuming dose linearity; for expected free plasma concentration: taking into account protein binding
Procedure: Predicted peak plasma concentrations of macitentan and ACT-132577 in PAH patients at 75 mg per day dose are expected to be around 5 μM and 14 μM, respectively, based on the PK Sub-study and assuming dose linearity. […] It is not likely that these unbound concentrations of macitentan and ACT-132577 result in any inhibition of BCRP in the liver or kidney or induction of CYP3A4 enzyme in the liver.

human PXR = biological target: T1, human PXR (Homo sapiens, UniProt O75469); experiment: Activation of human PXR; format: cell-based
T1 sequence (O75469 1-434): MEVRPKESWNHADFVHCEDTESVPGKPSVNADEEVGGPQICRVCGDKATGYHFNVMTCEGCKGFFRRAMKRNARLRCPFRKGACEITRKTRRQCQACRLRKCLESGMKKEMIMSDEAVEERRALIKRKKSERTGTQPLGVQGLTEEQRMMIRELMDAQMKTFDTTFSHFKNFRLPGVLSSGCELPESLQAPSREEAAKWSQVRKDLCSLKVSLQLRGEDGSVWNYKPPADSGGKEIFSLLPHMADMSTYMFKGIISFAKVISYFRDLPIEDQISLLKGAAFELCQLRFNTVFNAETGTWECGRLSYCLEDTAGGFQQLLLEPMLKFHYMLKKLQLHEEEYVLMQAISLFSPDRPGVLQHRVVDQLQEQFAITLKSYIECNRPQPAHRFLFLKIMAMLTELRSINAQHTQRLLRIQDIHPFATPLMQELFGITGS

CYP3A4 = CYP3A4 induction in human hepatocytes; format: in vitro ADME
[2] = Drug-drug interaction in general
[3] = cited from earlier work
ET receptors = conditions: cited from earlier work
[4] = continuous IV infusion, patients with PVR greater than 1200 dynes·s·cm^−5 before PEA surgery; cited from earlier work
[5] = rats, cited from earlier work
[6] = Effect of macitentan on decrease in hemoglobin concentration, pooled Phase I studies, Emax fit; format: in vivo, human; conditions: healthy volunteers
Excerpt: Hemoglobin measurements were pooled from 3 Phase I clinical studies in healthy volunteers: • Study AC-055-102: Investigation of the PK, PD, safety and tolerability of macitentan in male subjects (the study protocol is described in the following publication: Sidharta et al., Safety, tolerability, pharmacokinetics, and pharmacodynamics of macitentan, an endothelin receptor antagonist, in an ascending multiple-dose study in healthy subjects. J. Clin. Pharmacol. (2013), 53(11), 1131-1138) • Study AC-055-116: Investigation of the PK, PD, safety and tolerability of macitentan in male Japanese subjects (the study protocol is described in the following publication: Yokoyama et al., Tolerability, Safety, Pharmacokinetics, and Pharmacodynamics of Macitentan, a New Endothelin Receptor Antagonist, in Healthy Japanese Male Subjects. Rinsho yakuri/Japanese Journal of Clinical Pharmacology and Therapeutics (2016), 47, 143-150) • Study AC-055-117: Investigation of the PK, PD, safety and tolerability of macitentan in male Korean subjects (the study protocol is described in the following publication: Ahn et al., Pharmacokinetic-pharmacodynamic relationships of macitentan, a new endothelin receptor antagonist, after multiple dosing in healthy Korean subjects, Am. […]
Hemoglobin concentrations measured in the morning of Day 11 of macitentan treatment and at baseline on Day −1 were used in the analysis. […]

plasma ET-1 = conditions: healthy human subjects; 1, 3, 10, 30 mg; cited from earlier work
BCRP transporters = biological target: T2, BCRP transporters (Homo sapiens, UniProt Q9UNQ0); experiment: Effect of macitentan on rosuvastatin pharmacokinetics; format: in vivo; conditions: macitentan 10 mg per day o.d.
T2 construct: BCRP is an efflux pump located in the gut, liver canalicular membrane, and kidney; from tissue; host or cells: in vivo: gut, liver canalicular membrane, kidney
T2 sequence (Q9UNQ0 1-655): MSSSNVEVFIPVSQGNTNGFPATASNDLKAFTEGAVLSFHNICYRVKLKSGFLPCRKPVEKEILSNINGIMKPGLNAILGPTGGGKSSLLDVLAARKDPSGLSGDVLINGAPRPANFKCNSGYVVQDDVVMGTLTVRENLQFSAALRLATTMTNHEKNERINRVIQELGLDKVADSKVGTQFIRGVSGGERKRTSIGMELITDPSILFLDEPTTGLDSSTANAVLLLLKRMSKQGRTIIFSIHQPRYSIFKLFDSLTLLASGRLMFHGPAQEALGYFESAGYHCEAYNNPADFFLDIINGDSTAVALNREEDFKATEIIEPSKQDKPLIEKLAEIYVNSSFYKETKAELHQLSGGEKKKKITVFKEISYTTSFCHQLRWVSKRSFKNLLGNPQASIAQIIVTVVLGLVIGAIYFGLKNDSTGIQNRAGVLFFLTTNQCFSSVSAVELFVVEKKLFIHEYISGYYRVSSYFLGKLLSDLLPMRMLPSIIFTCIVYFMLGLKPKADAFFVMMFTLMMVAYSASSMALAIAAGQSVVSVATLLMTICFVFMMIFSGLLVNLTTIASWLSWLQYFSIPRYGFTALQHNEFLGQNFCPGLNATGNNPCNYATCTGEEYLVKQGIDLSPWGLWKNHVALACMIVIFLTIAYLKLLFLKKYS
Excerpt: BCRP is an efflux pump located in the gut, liver canalicular membrane, and kidney, and is exposed to intracellular drug concentrations in the liver and the kidney.

Row | predicted peak plasma concentration [1] | expected free plasma concentration [1] [µM] | EC50 (human PXR) [µM] | CYP3A4 mRNA and enzyme activity (CYP3A4) | dose at which the effect on hemoglobin decrease plateaus [6] [mg] | maximum effect on hemoglobin decrease (Emax) ([6]; Day 11 vs baseline Day −1) | effect on the pharmacokinetics of 1 mg rosuvastatin (BCRP transporters) | SMILES | drug-drug interaction [2] | time to peak plasma concentration ([3]; after the first dose of macitentan) | half-life ([3]; in humans) | plasma concentrations relative to macitentan ([3]; in vivo) | affinity for the ET receptors relative to parent compound (ET receptors) | effect on preoperative cardiac output and PVR [4] | dose of maximal or near-maximal effect ([5]; EMA Assessment Report) [mg/kg] | maximal effective dose [5] [mg/kg] | absorption into the plasma ([3]; in humans) | time to steady state ([3]; in humans) | plasma ET-1 concentrations at steady-state (plasma ET-1)
1 | ~14 µM | 0.07 | 7.2 to 8.7 | concentration-dependent increases |  |  |  | NS(=O)(=O)Nc1ncnc(OCCOc2ncc(Br)cn2)c1-c1ccc(Br)cc1 [ACT-132577] | No Drug-Drug Interaction has been observed | about 30 hours | approximately 48 hours | higher plasma concentrations than macitentan | lower affinity |  |  |  |  |  | 
2 |  |  |  |  |  |  |  | CCCCC[C@H](O)/C=C/[C@@H]1[C@H]2C/C(=C/CCCC(=O)O)O[C@H]2C[C@H]1O [epoprostenol] |  |  |  |  |  | may significantly increase preoperative cardiac output and reduces PVR |  |  |  |  | 
3 | around 5 μM | 0.02 | 1.1 to 1.2 | concentration-dependent increases | 10 | around 1.23 g/dL | has not shown any effect | CCCNS(=O)(=O)Nc1ncnc(OCCOc2ncc(Br)cn2)c1-c1ccc(Br)cc1 [macitentan, propylsulfamic acid [5-(4-bromo-phenyl)-6-[2-(5-bromo-pyrimidin-2-yloxy)-ethoxy]-pyrimidin-4-yl]-amide] | No Drug-Drug Interaction has been observed |  | about 16 hours |  |  |  | 10 | 30 | absorbed slowly | by the third day of administration | no further increase beyond the 10 mg oral dose

— patent US11612600B2, “Pharmaceutical composition comprising macitentan for the treatment of chronic thromboembolic pulmonary hypertension” (ACTELION PHARMACEUTICALS LTD, priority 2019, dated 2023)
